The values that follow come from patent publication US4780420A (Yale University, priority 1985, dated 1988).

Like-named read-outs stand apart in the source and are kept apart here.

As usually defined, the Ki is a dissociation constant, usually derived from enzyme kinetics or from competition with a known ligand. Higher therefore signals lower affinity.

The target in data set [1] is T1, progesterone receptor (Oryctolagus cuniculus, UniProt P06186).
T1 construct: On the fifth day the uterus was excised, weighed and homogenized; from tissue
T1 sequence (P06186 1-930): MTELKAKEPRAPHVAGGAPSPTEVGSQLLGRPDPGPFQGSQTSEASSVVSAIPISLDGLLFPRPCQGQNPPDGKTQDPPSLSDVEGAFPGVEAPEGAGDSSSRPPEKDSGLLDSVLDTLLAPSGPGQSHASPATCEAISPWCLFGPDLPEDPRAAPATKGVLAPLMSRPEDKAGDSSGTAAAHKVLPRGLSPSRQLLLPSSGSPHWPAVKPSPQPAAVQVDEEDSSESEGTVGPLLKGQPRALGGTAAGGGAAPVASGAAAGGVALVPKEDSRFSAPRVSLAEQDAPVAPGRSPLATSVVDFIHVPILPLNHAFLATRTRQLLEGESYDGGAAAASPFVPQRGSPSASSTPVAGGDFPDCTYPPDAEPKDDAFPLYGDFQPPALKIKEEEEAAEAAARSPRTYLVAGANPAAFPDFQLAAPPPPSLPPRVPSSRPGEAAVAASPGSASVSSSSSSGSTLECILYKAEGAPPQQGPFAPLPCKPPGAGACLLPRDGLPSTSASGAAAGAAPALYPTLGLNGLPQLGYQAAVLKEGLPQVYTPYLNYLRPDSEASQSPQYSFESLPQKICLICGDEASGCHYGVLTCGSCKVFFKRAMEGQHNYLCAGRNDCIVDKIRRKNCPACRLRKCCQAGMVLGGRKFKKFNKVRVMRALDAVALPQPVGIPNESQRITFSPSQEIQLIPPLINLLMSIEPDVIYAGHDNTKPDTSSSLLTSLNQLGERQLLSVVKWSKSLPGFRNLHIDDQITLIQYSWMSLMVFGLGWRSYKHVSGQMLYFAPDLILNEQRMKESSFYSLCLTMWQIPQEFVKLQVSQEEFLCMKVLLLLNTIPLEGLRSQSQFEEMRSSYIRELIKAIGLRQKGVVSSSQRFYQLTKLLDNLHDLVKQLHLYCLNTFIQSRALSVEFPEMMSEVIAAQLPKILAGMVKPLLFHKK
Nature of the data set: Competition of a series of steroids with [^3 H]R5020 and [^125 I]EVNT (specificity). The following applies: for competing for sites with either ligand (in words): [^3 H]R5020 and [^125 I]EVNT; for activity at 0.003 µM: competitor 3 nM; for activity at 0.1 µM: competitor 100 nM. Type of data set: binding, rabbit. The procedure: To be sure that [^125 I]EVNT and [^3 H]R5020 bound with similar specificities, experiments were performed in which a series of steroids competed with the two differently labelled ligands.
Bo is dpm specifically bound when
B is dpm bound in the presence of […]

A further data set has as its system estrogen receptor. The following applies: Hansen et al., Jogoda et al.; cited from earlier work.
For data set [2] the following is noted: in vivo; cited from earlier work.
Data set [3] deals with T1, progesterone receptor. In words: Progesterone receptor assay: competition with [^3 H]R5020 binding. Also on record: species or system rabbit. Here is the method:
On the fifth day the uterus was excised, weighed and homogenized at 0° C. in 1.5 volumes of iced buffer containing: 1 mM dithiothreitol, 0.15 mM Na2 EDTA, 30% glycerol, 20 mM sodium molybdate, 10 mM Tris/HCl, pH 7.4 (4° C.). Homogenization was accomplished with three 10 second bursts of Polytron homogenizer. The homogenate was centrifuged at 3,000×g for 10 min. and the resulting supernatant was centrifuged at 100,000×g for 1 hour. The final supertant (cytosol) was diluted with homogenization buffer to afford 20-40% binding of a trace of [^3 H]R5020 (90 Ci/mMol), 10,000 dpm, and 50 μl of the appropriate radioinert compound. Non-specific binding was evaluated in tubes containing 2 μM R5020. After incubating at 4° C. overnight, free and bound steroids were separated by the addition of 100 μl of a stirred suspension of charcoal (5 mg/ml) in 10 mM Tris-HCl, pH 7.4 (4° C.), 0.15 mM Na2 EDTA. After mixing and standing on ice for 10 min., the tubes were centrifuged at 1500×g for 10 mins. and the "bound" radioactivity, in a 0.15 ml aliquot of the supernatant, was measured in a liquid scintillation counter.
In FIG. 1, Bo is the specifically bound [^3 H]R5020 alone and b is the specifically bound [^3 H]R5020 in the presence of the designated concentration of competitor. […] In Table 1 below, the values in parenthesis are the number of complete experiments which were conducted; the binding constants are means±SEM.

Data set [4] has as its target T1, progesterone receptor. Nature of the data set: Saturation and Scatchard analysis of the progesterone receptor with [^125 I]EVNT and [^3 H]R5020. The format is binding, rabbit. The following applies: for slope and intercept of the Scatchard plots, i.e. -Ka and the binding capacity (in words): FIG. 3, R5020 vs EVNT.
Data set [5] in a line: Storage stability by thin layer chromatography. The format is physicochemical. The following applies: 4° C., 10% ethanol in benzene. Here is the method: The radioactive product, [^125 I]EVNT, was stored at 4° C. in the alcoholic benzene solution.
[6] abbreviates: read-out: B/Bo × 10^2, radioligand [^3 H]R5020 (0.67 nM).
The mark [7] stands for this setting: read-out: B/Bo × 10^2, radioligand [^125 I]EVNT (0.18 nM).
Where [8] appears, read: radioligand [^3 H]R5020 (0.67 nM), read-out: B/Bo × 10^2.
Where [9] appears, read: radioligand [^125 I]EVNT (0.18 nM), read-out: B/Bo × 10^2.
Where [10] appears, read: estrogen stimulated rabbit uterine cytosol, five experiments.

`C[C@]12CCC(=O)C[C@@H]1CC[C@@H]1[C@@H]2CC[C@]2(C)[C@@H](O)CC[C@@H]12` [5α-DHT, 5α-dihydrotestosterone]: at progesterone receptor [1], the “competing for sites with either ligand (in words)” value (from here on “competing for sites”) is on record as “ineffective in competing for sites with either ligand”. For the same compound, the results for the activity at 0.003 µM on progesterone receptor [1] (setting [6]) and at progesterone receptor [1] (setting [7]) were 101% and 100%, respectively. The values for the activity at 0.1 µM on progesterone receptor [1] (setting [6]) and at progesterone receptor [1] (setting [7]) were 95% and 91%, respectively.

As to `C[C@]12CCC(=O)C=C1CC[C@@H]1[C@@H]2[C@@H](O)C[C@@]2(C)[C@H]1CC[C@]2(O)C(=O)CO` [Cortisol], the “competing for sites” value on progesterone receptor [1] is “ineffective in competing for sites with either ligand”. For the same compound, on progesterone receptor [1] (setting [8]), the activity at 0.003 µM worked out at 98% and the activity at 0.1 µM came out at 106%. In addition, on progesterone receptor [1] (setting [9]), the activity at 0.003 µM turned out to be 100% and the activity at 0.1 µM was determined as 102%.

For `C[C@@H]1C[C@H]2[C@@H]3CCC4=CC(=O)C=C[C@]4(C)[C@@]3(F)[C@@H](O)C[C@]2(C)[C@@]1(O)C(=O)CO` [Dexamethasone], the “competing for sites” value at progesterone receptor [1] is “ineffective in competing for sites with either ligand”. At progesterone receptor [1] (setting [8]), the activity at 0.003 µM turned out to be 103% and the activity at 0.1 µM is 101%. Besides, at progesterone receptor [1] (setting [9]), the activity at 0.003 µM is 96% and the activity at 0.1 µM came to 100%.

As to `C[C@]12CC[C@@H]3c4ccc(O)cc4CC[C@H]3[C@@H]1CC[C@@]2(O)/C=C/I` [E-17α-[2-iodovinyl]analogs of estradiol], the “binding to the estrogen receptor (in words)” value in the data set on estrogen receptor is listed as “bind to the estrogen receptor”. Moreover, the “concentration in estrogen target tissues (in words)” value in data set [2] is listed as “concentrate in estrogen target tissues”.

`C[C@]12CC[C@H]3[C@@H](CCC4=CC(=O)CC[C@@H]43)[C@@H]1CC[C@@]2(O)/C=C/I` [EVNT, E-17α-(2-iodovinyl)-4-estrene-17β-ol-3-one]: at progesterone receptor [1], the “competing for sites” value is “substantial competition”. In addition, on progesterone receptor [1] (setting [6]), the activity at 0.003 µM is 42% and the activity at 0.1 µM came out at 0%. For the same compound, on progesterone receptor [1] (setting [7]), the activity at 0.003 µM was 74% and the activity at 0.1 µM is 0%. Also, on progesterone receptor [3], the Ki was found to be 4.26 ± 0.94 nM and the “binding to the progesterone receptor (in words)” value is on record as “bind the progesterone receptor with high affinity”. In addition, the “slope and intercept of the Scatchard plots, i.e. -Ka and the binding capacity (in words)” value at progesterone receptor [4] is reported as “almost the same”. On progesterone receptor [4] (FIGS. 2A and 2B), the “level of non-specific binding (in words)” value was “satisfactory and almost identical to that seen with R5020”.

Consider `C[C@]12CC[C@H]3[C@@H](CCC4=CC(=O)CC[C@@H]43)[C@@H]1C[C@@H](I)[C@@H]2O` [INT, 16α-Iodo-4-estrene-17β-ol-3-one], for which, on progesterone receptor [3], the inhibition constant Ki was determined as 39.8 nM and the “binding to the progesterone receptor (in words)” value was “bind the progesterone receptor with high affinity”.

`CC(=O)[C@H]1CC[C@H]2[C@@H]3CCC4=CC(=O)CC[C@]4(C)[C@H]3CC[C@]12C` [Progesterone]: the “competing for sites” value at progesterone receptor [1] is listed as “substantial competition”. Further, the activity at 0.003 µM at progesterone receptor [1] (setting [8]) is 94%; on progesterone receptor [1] (setting [9]) it was 91%. Moreover, the activity at 0.1 µM worked out at 37% at progesterone receptor [1] (setting [8]) and 22% at progesterone receptor [1] (setting [9]).

Consider `CCC(=O)[C@@]1(C)CC[C@H]2[C@@H]3CCC4=CC(=O)CCC4=C3CC[C@@]21C` [R5020, 17α,21-dimethyl-19-nor-4,9-pregnadiene-3,20-dione], for which the “competing for sites” value at progesterone receptor [1] was “substantial competition”. Moreover, the activity at 0.003 µM on progesterone receptor [1] (setting [8]) stood at 34%; at progesterone receptor [1] (setting [9]) it was 74%. Also, the activity at 0.1 µM at progesterone receptor [1] (setting [8]) and on progesterone receptor [1] (setting [9]) was 0% each time. Further, the Kd on progesterone receptor [3] (R5020, footnote *Kd, rabbit uterine cytosol, mean±SEM (5 experiments)) was determined as 1.05 ± 0.19 nM. In addition, the “slope and intercept of the Scatchard plots, i.e. -Ka and the binding capacity (in words)” value on progesterone receptor [4] is “almost the same”.

In the case of `C[C@]12CC[C@H]3[C@@H](CCC4=CC(=O)CC[C@@]43C)[C@@H]1CC[C@@H]2O` [Testosterone], the “competing for sites” value at progesterone receptor [1] was “ineffective in competing for sites with either ligand”. Moreover, on progesterone receptor [1] (setting [6]), the activity at 0.003 µM amounted to 100% and the activity at 0.1 µM amounted to 105%. Further, on progesterone receptor [1] (setting [7]), the activity at 0.003 µM amounted to 101% and the activity at 0.1 µM turned out to be 98%.

`C[C@]12CC[C@H]3[C@@H](CCC4=CC(=O)CC[C@@H]43)[C@@H]1CC[C@@]2(O)/C=C\I` [ZVNT, Z-17α-(2-iodovinyl)-4-estrene-17β-ol-3-one] came in with a Ki on progesterone receptor [3] of 1.81 nM. Also, the “binding to the progesterone receptor (in words)” value is reported as “bind the progesterone receptor with high affinity” at progesterone receptor [3] (listed as Z 17α-(2-iodovinyl) analog of 19-nortestosterone) and “somewhat greater affinity for the progesterone receptor” at progesterone receptor [3] (listed as Z isomer).

On progesterone receptor [4] (setting [10]), `CCC(=O)[C@@]1(C)CC[C@H]2[C@@H]3CCC4=CC(=O)CCC4=C3CC[C@@]21C` [[^3 H]R5020, [^3 H]17α,21-dimethyl-19-nor-4,9-pregnadiene-3,20-dione] yielded a binding capacity of 666 ± 198 pM. Besides, at progesterone receptor [4] (estrogen stimulated rabbit uterine cytosol, five experiments, ± SEM, read-out: Association constant Ka (converted)), the Kd was 0.8 nM.

`C[C@]12CC[C@H]3[C@@H](CCC4=CC(=O)CC[C@@H]43)[C@@H]1CC[C@@]2(O)/C=C/[125I]` [[^125 I]EVNT]: the “stable for a period of at least” value in data set [5] is 2-3 months. At progesterone receptor [4], this compound gave a Kd of 1.05 nM. At progesterone receptor [4] (setting [10]), this compound returned a binding capacity of 921 pM.
